These results are taken from US11191811B2, “Osteocalcin as a treatment for frailty associated with aging” (THE TRUSTEES OF COLUMBIA UNIVERSITY IN THE CITY OF NEW YORK, priority 2014, dated 2021).

Read-outs that look alike come from different tables or passages of the source.

One test has as its target T1, gamma-carboxylase (Homo sapiens, UniProt P38435).
T1 sequence (P38435 1-758): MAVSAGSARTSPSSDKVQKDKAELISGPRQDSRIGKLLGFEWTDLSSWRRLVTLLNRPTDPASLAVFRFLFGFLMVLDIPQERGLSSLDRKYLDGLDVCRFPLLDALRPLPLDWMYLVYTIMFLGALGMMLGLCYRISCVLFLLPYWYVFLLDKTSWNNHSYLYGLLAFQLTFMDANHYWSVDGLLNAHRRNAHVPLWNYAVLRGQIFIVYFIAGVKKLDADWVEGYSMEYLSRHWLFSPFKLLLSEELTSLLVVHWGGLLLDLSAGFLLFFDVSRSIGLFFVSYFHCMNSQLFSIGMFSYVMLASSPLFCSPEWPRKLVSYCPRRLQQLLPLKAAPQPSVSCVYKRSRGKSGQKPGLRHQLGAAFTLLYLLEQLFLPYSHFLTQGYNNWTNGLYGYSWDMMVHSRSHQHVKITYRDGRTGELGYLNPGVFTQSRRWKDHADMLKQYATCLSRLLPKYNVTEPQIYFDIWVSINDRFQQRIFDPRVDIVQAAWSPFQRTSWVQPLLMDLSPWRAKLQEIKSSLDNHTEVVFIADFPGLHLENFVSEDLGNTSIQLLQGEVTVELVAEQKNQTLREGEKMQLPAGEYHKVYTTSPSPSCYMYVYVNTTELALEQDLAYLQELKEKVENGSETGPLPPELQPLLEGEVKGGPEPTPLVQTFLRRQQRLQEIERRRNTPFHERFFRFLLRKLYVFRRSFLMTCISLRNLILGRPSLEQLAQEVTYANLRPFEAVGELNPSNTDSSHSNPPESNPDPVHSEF
The settings on record: thiol-specific inhibitors; cited from earlier work.

A further test concerns osteoblasts. Briefly: Gene expression in osteoblasts treated with IL-6. The test is classed as cell-based. An excerpt:
It was observed that treating osteoblasts with IL-6 decreased expression of Osteocalcin, thereby explaining why the circulating levels of total (carboxylated and uncarboxylated forms) osteocalcin are […] in Il6−/− mice. More importantly, IL-6 increased the expression in osteoblasts of Rankl, a cytokine that favors osteoclast differentiation and decreased the expression of Osteoprotegerin (Opg), a decoy receptor for Rankl and an inhibitor of bone resorption (Karsenty and Wagner, 2002, Developmental Cell 2:389-406; Palmqvist et al., 2002, J. Immunol. 169:3353-3362). This observation is consistent with the fact that the circulating levels of the undercarboxylated and active form of osteocalcin are decreased in Il6−/− mice (FIG. 29E). The regulation of Il-6 expression by osteocalcin signaling in myofibers and of bone resorption by IL-6 also explains why circulating levels of CTX, a biomarker of bone resorption, were low after exercise in Il6−/− and Gprc6aMck−/− mice (FIG. 29G-H). These experiments reveal the existence of a feed-forward regulation between osteocalcin production in bone and IL-6 synthesis in muscle that is necessary for the increase in muscle function during exercise. This regulatory loop should synergize with the ability of IL-6 to favor liver gluconeogenesis and lipolysis, since these two other functions of IL-6 increase the pool of nutrients made available for myofibers during exercise.
Serum osteocalcin, PINP, CTX, and insulin levels were measured using ELISA assays. Blood glucose level was measured using an Accu-Check glucometer. Urine 3-MHT was measured as previously described (Aranibar et al., 2011, Anal. Biochem. 410:84-91). Determination of cAMP accumulation was performed using a commercial kit (R&D). For gene expression, 1 μg of total RNA was reverse transcribed into cDNA. qPCR analyses were performed using a SYBER green master mix (Applied Biosciences) and a CFX-Connect real time PCR (Bio-Rad). Relative expression levels of each gene were normalized to that of Hprt or Gapdh. For in situ hybridization, muscle was frozen in liquid N2-cooled methylbutane. Samples were sectioned at 10 μm using a cryostat. In situ hybridization was performed with a DIG-labeled riboprobe as previously described (Oury et al., 2011, Cell 144:796-809).

Turning to `O=C([O-])c1cc[c]([Hg][OH])cc1` [pHMB, p-hydroxymurcuribenzoate], the gamma-carboxylase enzyme activity result at gamma-carboxylase is listed as “inhibited”.
Regarding `CCN1C(=O)C=CC1=O` [N-ethylmaleimide], on gamma-carboxylase, the gamma-carboxylase enzyme activity entry is “inhibited”.
For “IL-6: interleukin-6 (IL-6), a myokine whose circulating levels raise during exercise”, in the test with osteoblasts, the “expression of Osteocalcin in osteoblasts” value was “decreased”, the “expression of Osteoprotegerin (Opg) in osteoblasts” value is “decreased” and the “expression of Rankl in osteoblasts” value is reported as “increased”. Further, in the test with osteoblasts (listed as interleukin-6), the “expression of Osteocalcin in osteoblasts” value is listed as “inhibits” and the “expression of Rankl in osteoblasts” value is given as “stimulating”.
